Data reported in patent publication US8946158B2, “Treatments of gastrointestinal disorders” (Ironwood Pharmaceuticals, Inc., priority 2009, dated 2015).
Positions of bridges follow the written chain, without caps; N, C: chain ends. Non-standard residues stand in square brackets, D forms with d. Residues, ends and D or L forms follow the SMILES beside them. pS = N[C@@H](COP(=O)(O)O)C(=O)O

Experiments:
[1] = target: T1, Calf intestinal alkaline phosphatase (CIP) (Bos taurus, UniProt P19111); test: Alkaline phosphatase reaction (dephosphorylation of peptide substrates, LC-MS); assay type: in vitro ADME; conditions: with and without calf intestinal alkaline phosphatase; data not shown
T1 construct: purchased New England BioLabs M0290S
T1 sequence (P19111 20-506): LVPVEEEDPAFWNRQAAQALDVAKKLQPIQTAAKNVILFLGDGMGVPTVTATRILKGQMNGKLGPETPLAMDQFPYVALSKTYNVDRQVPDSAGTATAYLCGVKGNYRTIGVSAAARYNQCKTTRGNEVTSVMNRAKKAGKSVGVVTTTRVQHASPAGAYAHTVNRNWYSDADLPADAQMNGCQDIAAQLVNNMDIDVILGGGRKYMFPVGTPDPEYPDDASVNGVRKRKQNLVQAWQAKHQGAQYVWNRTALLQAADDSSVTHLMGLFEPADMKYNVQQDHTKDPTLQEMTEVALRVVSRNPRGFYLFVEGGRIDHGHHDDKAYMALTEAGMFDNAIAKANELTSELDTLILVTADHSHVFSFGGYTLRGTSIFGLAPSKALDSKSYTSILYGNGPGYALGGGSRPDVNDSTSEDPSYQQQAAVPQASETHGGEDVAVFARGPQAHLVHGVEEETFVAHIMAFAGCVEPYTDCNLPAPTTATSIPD
Method: For the alkaline phosphatase reactions, peptide stocks were prepared at 1 mg/mL in 0.1 M Tris-HCl pH 8, which were stored at −20° C. until assays were conducted. For the acid phosphatase reactions, peptide stocks were prepared at 1 mg/mL in 50 mM sodium phosphate pH 6, which was stored at −20° C. until assays were conducted.
Calf intestinal alkaline phosphatase (CIP) was obtained from New England BioLabs, Ipswich, Mass. Cat #M0290S. The CIP reaction solution was prepared by dilution with buffer (50 mM KCl, 10 mM Tris-HCl pH 8, 1 mM MgCl2, 50% glycerol) to 0.5 units/μL. The alkaline phosphatase reaction solutions were assembled in 20 μL quantities containing: • 2 μL 10× CIP buffer (1M NaCl, 500 mM Tris-HCl pH 8, 100 mM MgCl2) • 2 μL peptide stock (1 mg/mL) • 12 μL H2O • 4 μL alkaline phosphatase (0, 0.5 or 2 units)
The reaction solutions were mixed gently and incubated for 90 minutes at 37° C. These reaction solutions were stored at −20° C. until analysis. For analysis, the reaction solutions were diluted from […] of CIP treated peptide to 50 μL with 0.1% formic acid in water to a final concentration of 10 μM.
Control reactions were assembled for enzyme activity containing 10 mM p-nitrophenylphosphate in place of peptide. After incubation, the reactions were diluted with 0.1 mL of 100 mM borate buffer pH 9 and read at the absorbance of 405 nm to monitor p-nitrophenol appearance.

[2] = In vitro metabolism in mouse jejunum loop fluid; assay type: in vitro ADME; conditions: for Rate of degradation relative to peptide 2: mouse intestinal fluid
Method: The purpose of this study was to determine the stability of phosphorylated peptides in mouse jejunal loop fluid. […] The isotopically labeled peptide 2 was synthesized with ^13C, ^15N-labeled alanine and leucine (i.e., with a sequence CCpS[^13C6,^15N]LCCNP[^13C6,^15N]ACTGC (SEQ ID NO:16)).
Each peptide was synthesized by American Peptide Company, Inc., and was stored desiccated at −20° C. A 1 mg/mL solution for each of the non-labeled peptides was prepared in 1 M tris(hydroxymethyl)aminomethane hydrochloride (Tris-HCl), pH 8 just prior to conducting the mouse intestinal loop fluid assay. A 500 ng/mL solution of ^13C, ^15N-labeled peptide 2 was prepared in 0.1% formic acid in water and was utilized to dilute the jejunum samples for post-assay LC-MS/MS analysis.
To collect the fluid, mice were fasted overnight with full access to water. They were then anesthetized with isofluorane for surgery and subjected to laparotomy in which the small intestine was exteriorized. Jejunum loops of 3 to 4 cm in length were made with sutures starting at 7 cm from the pyloric sphincter of the stomach. Once the loops were formed, they were injected with 200 μL of phosphate buffered saline (PBS) buffer (10 mM, pH 7.4). The abdominal wall and skin of the animals were then sutured, and the animals were allowed to recover for 30 minutes. Following recovery, the animals were sacrificed, the loops were then excised and the fluid inside was recovered and stored at −80° C. until use.
For each peptide, 25 μL of the 1 mg/mL peptide stock solution was added to 25 μL of 1 M Tris-HCl and 25 μL of 10× calf intestinal phosphatase (CIP) buffer containing 500 mM Tris-HCl, 1 M sodium chloride (NaCl), 0.1 mM magnesium chloride (MgCl2), pH 8. The reactions were initiated by adding 175 μL of the mouse jejunum loop fluid or 175 μL of the 1 M Tris-HCl pH8 buffer for the control reactions. The final concentration of each peptide was 100 μg/mL. The reactions were continuously mixed and maintained at 37° C. on a plate shaker. At 0, 2, 5, 10, 20, 30, 60, 90 and 120 minutes after adding the mouse intestinal loop fluid, a 25 μL aliquot was taken and added to 25 μL of 4° C. 12% trichloroacetic acid to stop the reaction. An additional 200 μL of 0.1% formic acid in water was added to these reactions for dilution purposes. These samples were then further diluted by taking 20 μL of each sample and adding it to 480 μL of 0.1% formic acid in water containing 500 ng/mL of the internal standard 13C, 15N-labeled peptide 2.
All samples were analyzed using an Applied Biosystems/MDS SCIEX API 4000 triple quadrupole mass spectrometer equipped with a high-performance liquid chromatography (HPLC) system. The mass spectrometer was operated in multiple reaction monitoring (MRM) mode, with resolution set to 1.2 Da. […]

upper GI transit in mice = test: Gastrointestinal transit in mice (charcoal meal); assay type: in vivo; conditions: female CD-1 mice; oral gavage; distance travelled by charcoal front, % of small intestine
Method: The purpose of the assay was to test the effect of the guanylate cyclase C agonist peptides on in vivo gastrointestinal transit in mice.
For the assay, female CD-1 mice (n=10 per group) weighing 25-30 g were fasted overnight and given access to water ad libitum. Activated charcoal (20 g; 100 mesh; Sigma cat #242276) was suspended in 200 mL gum arabic (100 mg/mL), and stirred for at least one hour. Test peptides were prepared in a 20 mM Tris pH 6.9 vehicle.
Test peptide and vehicle were administered in 200 μL doses by oral gavage. Seven minutes after dosing the test peptides, 200 μL of the charcoal/gum arabic suspension was dosed by oral gavage. […] The total length of the small intestine was measured from the pyloric junction to the ileocaecal junction. The distance travelled by the charcoal was measured from the pyloric junction to the charcoal front. The Distance Travelled (%) was determined as (distance travelled by charcoal/total length of the small intestine)×100. Data were entered into the GraphPad Prism software program and analyzed by ANOVA using a Bonferroni multiple comparison test post-hoc. Plots of data and ED50 were also determined using the GraphPad Prism software package.
The dose-dependent effects of acute doses of Peptide 4, Peptide 1, Peptide 2, the dephosphorylated form of Peptide 1 and the dephosphorylated form of Peptide 2 on GI transit were determined in female CD mice. […]

[3] = system: ligated rat duodenal loops; test: Fluid secretion in rat intestinal loops; assay type: in vivo; conditions: 2.5 μg of peptide per loop
Method: The effect of GC-C agonist peptides on secretion were studied by injecting GC-C agonist peptides described herein directly into an isolated loop in wild-type rats.
Loops were isolated by surgically ligating three loops in the small intestine of the rat. The methodology for ligated loop formation was similar to that described in (London et al., 1997, Am J Physiol, p. G93-105). The loops were roughly centered and at lengths of 1-3 cm. The loops were injected with 200 μl of either peptide/GC-C agonist (0.1-5 μg) or vehicle (20 mM Tris, pH 7.5 or Krebs Ringer, 10 mM Glucose, HEPES buffer (KRGH)). Following a recovery time of up to 90 minutes the loops were excised. Weights were recorded for each loop before and after removal of the fluid contained therein. The length of each loop was also recorded. A weight to length ratio (W/L) for each loop was calculated to determine the effects of the GC-C agonist peptide described herein on secretion. Loop fluid volume was also determined.
Data showing increases in fluid secretion, pH increase and bicarbonate secretion in ligated duodenal loops in rats are shown in FIG. 2 and Table 8. […] Table 8 provides the results in ligated rat duodenal loops using 2.5 μg of peptide per loop.

## CC(C)C[C@@H]1NC(=O)[C@H](CCC(=O)O)NC(=O)[C@@H]2CSSC[C@@H]3NC(=O)[C@H](C)NC(=O)[C@@H]4CCCN4C(=O)[C@H](CC(N)=O)NC(=O)[C@H](CSSC[C@H](N)C(=O)N2)NC(=O)[C@H](CSSC[C@@H](C(=O)N[C@@H](Cc2ccc(O)cc2)C(=O)O)NC(=O)CNC(=O)[C@H]([C@@H](C)O)NC3=O)NC1=O [Peptide 3, CCELCCNPACTGCY] (H-CCELCCNPACTGCY-OH; disulfide 1-6, 2-10, 5-13 (inferred); N-terminus and C-terminus assumed)
[1]
  Effect of CIP treatment on peptide (LC-MS): not affected
[2]
  Rate of degradation relative to peptide 2: degraded faster in mouse intestinal fluid than peptide 2
[2]; mouse jejunum fluid, after 90 minutes, 37° C.
  Peptide remaining (detection): not detected

## CCEFCCNPACTGCY (Synthetically generated peptide (Peptide 4))
Upper GI transit in mice
  ED50, acceleration of upper GI transit in mice: 2.06 µg/kg
[3]
  Rate of HCO3− accumulation: 0.00008 Meq/min/cm
  Rate of fluid accumulation: 2.0 µL/min/cm
  pH: 8.2

## CC(C)C[C@@H]1NC(=O)[C@H](COP(=O)(O)O)NC(=O)[C@@H]2CSSC[C@@H]3NC(=O)[C@H](C)NC(=O)[C@@H]4CCCN4C(=O)[C@H](CC(N)=O)NC(=O)[C@H](CSSC[C@H](N)C(=O)N2)NC(=O)[C@H](CSSC[C@@H](C(=O)O)NC(=O)CNC(=O)[C@H]([C@@H](C)O)NC3=O)NC1=O [Peptide 2, CCpSLCCNPACTGC] (H-CC[pS]LCCNPACTGC-OH; disulfide 1-6, 2-10, 5-13 (inferred); N-terminus and C-terminus assumed)
[2]; mouse jejunum loop fluid at 37° C.
  Metabolite formation: Formation of dephospho-peptide 2 was observed

## CC(C)C[C@@H]1NC(=O)[C@H](CO)NC(=O)[C@@H]2CSSC[C@@H]3NC(=O)[C@H](C)NC(=O)[C@@H]4CCCN4C(=O)[C@H](CC(N)=O)NC(=O)[C@H](CSSC[C@H](N)C(=O)N2)NC(=O)[C@H](CSSC[C@@H](C(=O)O)NC(=O)CNC(=O)[C@H]([C@@H](C)O)NC3=O)NC1=O [Dephospho-Peptide 2, CCSLCCNPACTGC] (H-CCSLCCNPACTGC-OH; disulfide 1-6, 2-10, 5-13 (inferred); N-terminus and C-terminus assumed)
[2]
  Rate of degradation relative to peptide 2: degraded faster in mouse intestinal fluid than peptide 2
